In patent US20230017532A1 (Hoffmann-La Roche Inc., priority 2018, published 2023):
Counter-ions that a name gives are not always drawn.

System: Acinetobacter baumannii ATCC17978
Assay: Antimicrobial susceptibility testing: 90% growth inhibitory concentration (IC90) determination, Iso-Sensitest broth, OD 600 nm
Type: cell-based
Conditions: 90% growth inhibitory concentration, Acinetobacter baumannii ATCC17978, Iso-Sensitest broth, OD 600 nm over 16 h; read-out: ATCC 17978 IC90
Procedure: Antimicrobial Susceptibility Testing:
90% Growth Inhibitory Concentration (IC90) Determination
The in vitro antimicrobial activity of the compounds was determined according to the following procedure:
The assay used a 10-points Iso-Sensitest broth medium to measure quantitatively the in vitro activity of the compounds against Acinetobacter baumannii ATCC17978 and Acinetobacter baumannii ATCC17961.
Stock compounds in DMSO were serially twofold diluted (e.g. range from 50 to 0.097 μM final concentration) in 384 wells microtiter plates and inoculated with 49 μl the bacterial suspension in Iso-Sensitest medium to have a final cell concentration of ˜5×10^(5) CFU/ml in a final volume/well of 50 ul/well. Microtiter plates were incubated at 35±2° C.
Bacterial cell growth was determined with the measurement of optical density at λ=600 nm each 20 minutes over a time course of 16 h. Growth inhibition was calculated during the logarithmic growth of the bacterial cells with determination of the concentration inhibiting 50% (IC50) and 90% (IC90) of the growth.
Table 1 provides the 90% growth inhibitory concentrations (IC90) in micromoles per liter of the compounds of present invention obtained against the strain Acinetobacter baumannii ATCC17978 and Acinetobacter baumannii ATCC17961.

First: CCc1cc(Nc2nccn3c(-c4ccc(OC)c(F)c4F)cnc23)ccc1C(=O)NCCNCCN [Example 186, N-[2-(2-aminoethyl-amino)ethyl]-4-[[3-(2,3-difluoro-4-methoxyphenyl)imidazo[1,2-a]pyrazin-8-yl]amino]-2-ethyl-benzamide;2,2,2-trifluoroacetic acid]
Second: CCc1cc(Nc2nccn3c(-c4ccc(Cl)c(F)c4F)cnc23)ccc1C(=O)NCCOCCN [Example 87, N-[2-(2-aminoethoxy)ethyl]-4-[[3-(4-chloro-2,3-difluoro-phenyl)imidazo [1,2-a]pyrazin-8-yl]amino]-2-ethylbenzamide]
The IC90 of the first is 3.7-fold higher: 0.66 µM for the first, 0.18 µM for the second.

Same assay, conditions: Acinetobacter baumannii, ATCC17978, 16 h, 90% growth inhibitory concentration, Acinetobacter baumannii ATCC17978, Iso-Sensitest broth, OD 600 nm over 16 h; read-out: ATCC 17978 IC90

Compared with `CCc1cc(Nc2nccn3c(-c4ccc(Cl)c(F)c4F)cnc23)ccc1C(=O)NCCCNC` [Example 192, 4-[[3-(4-chloro-2,3-difluorophenyl)imidazo[1,2-a]pyrazin-8-yl]amino]-2-ethyl-N-[3-(methyl-amino)propyl] benzamide; hydrochloride], `CCc1cc(Nc2nccn3c(-c4ccc(Cl)c(F)c4F)cnc23)ccc1C(=O)NCCOCCNCCO` [Example 92, 4-[[3-(4-chloro-2,3-difluoro-phenyl)imidazo [1,2-a]pyrazin-8-yl]amino]-2-ethyl-N-[2-[2-(2-hydroxyethyl-amino)ethoxy]ethyl]benzamide] is 6.2-fold lower in IC90: 1.6 µM for the first, 0.26 µM for the second.

First: COc1ccc(-c2cnc3c(Nc4ccc(C(=O)NCCOCCN5CCNC(=O)C5)c(C)c4)nccn23)c(F)c1F [Example 3, 4-[[3-(2,3-difluoro-4-methoxy-phenyl)imidazo[1,2-a]pyrazin-8-yl]amino]-2-methyl-N-[2-[2-(3-oxopiperazin-1-yl)ethoxy]ethyl]benzamide;2,2,2-trifluoroacetic acid]
Second: Cc1cc(Nc2nccn3c(-c4ccc(Cl)c(F)c4F)cnc23)ccc1C(=O)NCCOCCN [Example 88, N-[2-(2-aminoethoxy)ethyl]-4-[[3-(4-chloro-2,3-difluorophenyl)imidazo[1,2-a]pyrazin-8-yl]amino]-2-methylbenzamide; hydrochloride]
The IC90 of the first is 1.8-fold higher: 0.38 µM for the first, 0.21 µM for the second.

Going from `Cc1cc(Nc2nccn3c(-c4ccc(OC(F)F)cc4)cnc23)ccc1C(=O)NCC[S+]([O-])CCN` (stereo not drawn) [Example 47, N-(2-((2-Aminoethyl)sulfinyl)ethyl)-4-((3-(4-(difluoromethoxy)phenyl)imidazo[1,2-a]pyrazin-8-yl)amino)-2-methylbenzamide] to `CNC(=O)COCCNC(=O)c1ccc(Nc2nccn3c(-c4ccc(OC(F)F)cc4)cnc23)cc1C` [Example 11, 4-((3-(4-(difluoromethoxy)phenyl)imidazo[1,2-a]pyrazin-8-yl)amino)-2-methyl-N-(2-(2-(methylamino)-2-oxoethoxy)ethyl)benzamide], the IC90 falls from 0.92 µM to 0.16 µM (5.8-fold).

Going from `Cc1cc(Nc2nccn3c(-c4ccc(OC(F)F)cc4)cnc23)ccc1C(=O)NCCOCCOCCO` [Example 149, 4-[[3-[4-(difluoro-methoxy)phenyl]imidazo [1,2-a]pyrazin-8-yl]amino]-N-[2-[2-(2-hydroxyethoxy)ethoxy]ethyl]-2-methylbenzamide] to `Cc1cc(Nc2nccn3c(-c4ccc(OC(F)F)cc4)cnc23)ccc1C(=O)NCCOCCN1CC[C@H]2COC[C@@H]2C1` [Example 82, N-[2-[2-[(3aS, 7aR)-3,3a,4,6,7,7a-hexahydro-1H-furo[3,4-c]pyridin-5-yl]ethoxy]ethyl]-4-[[3-[4-(difluoromethoxy)phenyl]imidazo [1,2-a]pyrazin-8-yl]amino]-2-methylbenzamide], the IC90 falls from 1.3 µM to 0.47 µM (2.8-fold).

Work on `COc1ccc(-c2cnc3c(Nc4ccc(C(=O)NCCOCCN)c(CC(F)F)c4)nccn23)cc1F` [Example 173, N-[2-(2-aminoethoxy)ethyl]-2-(2,2-difluoroethyl)-4-[[3-(3-fluoro-4-methoxyphenyl)imidazo[1,2-a]pyrazin-8-yl]amino] benzamide; formic acid] yielded an IC90 of 0.37 µM.

Same assay, conditions: Acinetobacter baumannii, ATCC17978, 16 h, read-out: ATCC 17978 IC90

For `Cc1cc(Nc2nccn3c(-c4ccc(F)cc4F)cnc23)ccc1C(=O)NCCOCCN` [Example 35, N-(2-(2-aminoethoxy)ethyl)-4-((3-(2,4-difluorophenyl)imidazo[1,2-a]pyrazin-8-yl)amino)-2-methylbenzamide hydrochloride], the IC90 was 0.77 µM.
